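The compound was tested at five concentrations on cells cultured in 96-well plates, with a 48-hour exposure period. The concentration for 50% growth inhibition is given as GI50.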 Activity calls are given as the source filed them. Cut-off read from the data, not from the text of the source: active = GI50 up to about 1.1 µM and inactive = higher.
Assays:
Test in all cases: NCI-60 cell line screen, 48 h
HT-29 = test system: HT-29
MOLT-4 = test system: MOLT-4
UACC-257 = test system: UACC-257
SF-295 = test system: SF-295
DU-145 = test system: DU-145
KM12 = test system: KM12
OVCAR-5 = test system: OVCAR-5
CAKI-1 = test system: CAKI-1
HCT-116 = test system: HCT-116
OVCAR-3 = test system: OVCAR-3
LOX IMVI = test system: LOX IMVI
U-251 = test system: U-251
786-0 = test system: 786-0
SK-MEL-5 = test system: SK-MEL-5
NCI-H460 = test system: NCI-H460
TK-10 = test system: TK-10
MDA-MB-435 = test system: MDA-MB-435
HL-60 = test system: HL-60
OVCAR-4 = test system: OVCAR-4
Malme-3M = test system: Malme-3M

C=C[C@H]1CN2CCc3c([nH]c4c([C@@H]5CCCN5C)c(O)ccc34)[C@@H]2C[C@@H]1C[C@H]1c2[nH]c3ccccc3c2CCN1C
GI50 (HT-29): 1.4 µM (inactive)
GI50 (MOLT-4): 0.316 µM (active)
GI50 (UACC-257): 3.18 µM (inactive)
GI50 (SF-295): 1.01 µM (active)
GI50 (DU-145): 1.48 µM (inactive)
GI50 (KM12): 1.41 µM (inactive)
GI50 (OVCAR-5): 1.85 µM (inactive)
GI50 (CAKI-1): 1.61 µM (inactive)
GI50 (HCT-116): 0.239 µM (active)
GI50 (OVCAR-3): 1.36 µM (inactive)
GI50 (LOX IMVI): 0.179 µM (active)
GI50 (U-251): 1.49 µM (inactive)
GI50 (786-0): 0.437 µM (active)
GI50 (SK-MEL-5): 1.66 µM (inactive)
GI50 (NCI-H460): 1.49 µM (inactive)
GI50 (TK-10): 1.59 µM (inactive)
GI50 (MDA-MB-435): 1.48 µM (inactive)
GI50 (HL-60): 0.409 µM (active)
GI50 (OVCAR-4): 1.42 µM (inactive)

O=C(O)c1nn(-c2ccccc2)nc1-c1nn(-c2ccccc2)nc1C(=O)O
GI50 (HT-29): > 100 µM (inactive)
GI50 (MOLT-4): > 100 µM (inactive)
GI50 (UACC-257): > 100 µM (inactive)
GI50 (SF-295): > 100 µM (inactive)
GI50 (Malme-3M): > 100 µM (inactive)
GI50 (DU-145): > 100 µM (inactive)
GI50 (KM12): > 100 µM (inactive)
GI50 (OVCAR-5): > 100 µM (inactive)
GI50 (CAKI-1): > 100 µM (inactive)
GI50 (HCT-116): > 100 µM (inactive)
GI50 (OVCAR-3): > 100 µM (inactive)
GI50 (LOX IMVI): > 100 µM (inactive)
GI50 (U-251): > 100 µM (inactive)
GI50 (786-0): > 100 µM (inactive)
GI50 (SK-MEL-5): > 100 µM (inactive)
GI50 (NCI-H460): > 100 µM (inactive)
GI50 (TK-10): > 100 µM (inactive)
GI50 (MDA-MB-435): > 100 µM (inactive)
GI50 (HL-60): > 100 µM (inactive)
GI50 (OVCAR-4): > 100 µM (inactive)

Cc1c(CNc2ccc(C(=O)NC(CCCNC(=O)c3ccccc3C(=O)O)C(=O)O)cc2)cnc2nc(N)nc(N)c12 (stereo not given)
GI50 (HT-29): 0.001 µM (active)
GI50 (MOLT-4): 0.000566 µM (active)
GI50 (UACC-257): 0.785 µM (active)
GI50 (SF-295): 0.000593 µM (active)
GI50 (Malme-3M): 0.468 µM (active)
GI50 (DU-145): 0.00091 µM (active)
GI50 (KM12): 0.000521 µM (active)
GI50 (OVCAR-5): 0.199 µM (active)
GI50 (CAKI-1): 0.001 µM (active)
GI50 (HCT-116): 0.000582 µM (active)
GI50 (OVCAR-3): 0.0168 µM (active)
GI50 (LOX IMVI): < 0.0001 µM (active)
GI50 (U-251): 0.00358 µM (active)
GI50 (786-0): < 0.0001 µM (active)
GI50 (SK-MEL-5): 0.000644 µM (active)
GI50 (NCI-H460): 0.000381 µM (active)
GI50 (TK-10): 1.79 µM (inactive)
GI50 (MDA-MB-435): 0.000596 µM (active)
GI50 (HL-60): > 100 µM (inactive)
GI50 (OVCAR-4): 1.55 µM (inactive)

C[N+](C)(N)c1nc(N)c(C#N)c(C#N)c1C#N
GI50 (HT-29): > 10 µM (inactive)
GI50 (MOLT-4): > 10 µM (inactive)
GI50 (SF-295): > 10 µM (inactive)
GI50 (Malme-3M): > 10 µM (inactive)
GI50 (DU-145): > 10 µM (inactive)
GI50 (OVCAR-5): > 10 µM (inactive)
GI50 (CAKI-1): > 10 µM (inactive)
GI50 (HCT-116): > 10 µM (inactive)
GI50 (OVCAR-3): 1.91 µM (inactive)
GI50 (LOX IMVI): > 10 µM (inactive)
GI50 (U-251): > 10 µM (inactive)
GI50 (SK-MEL-5): > 10 µM (inactive)
GI50 (NCI-H460): > 10 µM (inactive)
GI50 (TK-10): > 10 µM (inactive)
GI50 (MDA-MB-435): > 10 µM (inactive)
GI50 (HL-60): > 10 µM (inactive)
GI50 (OVCAR-4): > 10 µM (inactive)

CC1C/C(=C\c2ccc(O)c(O)c2)C(=O)/C(=C/c2ccc(O)c(O)c2)C1 (stereo not given)
GI50 (HT-29): 18 µM (inactive)
GI50 (MOLT-4): 4.76 µM (inactive)
GI50 (UACC-257): 14.5 µM (inactive)
GI50 (SF-295): 13.7 µM (inactive)
GI50 (Malme-3M): 10.4 µM (inactive)
GI50 (DU-145): 8.85 µM (inactive)
GI50 (KM12): 8.17 µM (inactive)
GI50 (OVCAR-5): 17.3 µM (inactive)
GI50 (CAKI-1): 5.74 µM (inactive)
GI50 (HCT-116): 6.67 µM (inactive)
GI50 (OVCAR-3): 5.25 µM (inactive)
GI50 (LOX IMVI): 7.06 µM (inactive)
GI50 (U-251): 5.51 µM (inactive)
GI50 (SK-MEL-5): 4.23 µM (inactive)
GI50 (NCI-H460): 12.7 µM (inactive)
GI50 (TK-10): 25 µM (inactive)
GI50 (MDA-MB-435): 2.83 µM (inactive)
GI50 (HL-60): 4.93 µM (inactive)
GI50 (OVCAR-4): 7.16 µM (inactive)

S=C(NCc1ccccn1)N/N=C/c1ccccn1
GI50 (MOLT-4): < 0.01 µM (active)
GI50 (UACC-257): < 0.01 µM (active)
GI50 (SF-295): 0.0482 µM (active)
GI50 (Malme-3M): 0.614 µM (active)
GI50 (DU-145): 0.268 µM (active)
GI50 (KM12): < 0.01 µM (active)
GI50 (OVCAR-5): < 0.01 µM (active)
GI50 (CAKI-1): < 0.01 µM (active)
GI50 (HCT-116): < 0.01 µM (active)
GI50 (OVCAR-3): < 0.01 µM (active)
GI50 (LOX IMVI): < 0.0167 µM (active)
GI50 (786-0): < 0.01 µM (active)
GI50 (SK-MEL-5): 0.0184 µM (active)
GI50 (NCI-H460): 0.0556 µM (active)
GI50 (TK-10): 0.0195 µM (active)
GI50 (MDA-MB-435): 0.207 µM (active)
GI50 (HL-60): < 0.01 µM (active)
GI50 (OVCAR-4): < 0.0371 µM (active)

CCC(=O)ONC(=O)Cn1ccc([N+](=O)[O-])n1
GI50 (HT-29): > 100 µM (inactive)
GI50 (MOLT-4): > 100 µM (inactive)
GI50 (UACC-257): > 100 µM (inactive)
GI50 (SF-295): > 100 µM (inactive)
GI50 (Malme-3M): > 100 µM (inactive)
GI50 (DU-145): > 100 µM (inactive)
GI50 (KM12): > 100 µM (inactive)
GI50 (OVCAR-5): > 100 µM (inactive)
GI50 (CAKI-1): > 100 µM (inactive)
GI50 (HCT-116): > 100 µM (inactive)
GI50 (OVCAR-3): > 100 µM (inactive)
GI50 (LOX IMVI): > 100 µM (inactive)
GI50 (786-0): > 100 µM (inactive)
GI50 (SK-MEL-5): > 100 µM (inactive)
GI50 (TK-10): > 100 µM (inactive)
GI50 (MDA-MB-435): > 100 µM (inactive)
GI50 (HL-60): > 100 µM (inactive)
